Patent US20250129430A1, “HIGH ATP-AFFINITY PROTEIN AS THERAPEUTIC TARGET FOR INTRACTABLE CANCER MOLECULAR SUBTYPES AND INHIBITOR THEREOF” (VeraVerse Co., Ltd., priority 2021, published 2025)

What was measured:
Experiment in all cases: Cell viability drug screen, 12-point dose-response AUC
Format in all cases: cell-based, human
SNU668 = details: 72 hours; for area under the viability curve (AUC), normalized: SNU668 cells, 12-point dose-response
Procedure, shortened: (§1)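 Twelve half-log concentrations per compound were tested on gastric cancer cells with an EMT phenotype (5×10^3/well, dosed 24 h post-seeding). Viability after 72 h was quantified via luminescence relative to 0.5% DMSO, and repeats were averaged.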

SNU484 = details: 72 hours; for area under the viability curve (AUC), normalized: SNU484 cells, 12-point dose-response
Procedure, shortened: as §1

NCC59 = NCC59 cells, 72 hours; for area under the viability curve (AUC), normalized: 12-point dose-response
Procedure, shortened: as §1

MKN1 = MKN1 cells, 72 hours; for area under the viability curve (AUC), normalized: 12-point dose-response
Procedure, shortened: as §1

AGS = details: 72 hours; for area under the viability curve (AUC), normalized: AGS cells, 12-point dose-response
Procedure, shortened: (§2)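 Gastric cancer lines seeded 5×10^3 cells/well, dosed after 24 h with half-log 12-point compound dilutions (DMSO 0.5% control), then 72 h at 37 °C. Viability by luminescence, normalized to DMSO; AUC by trapezoidal method, averaged over repeats.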

SNU719 = SNU719 cells, 72 hours; for area under the viability curve (AUC), normalized: 12-point dose-response
Procedure, shortened: as §2

SNU16 = SNU16 cells, 72 hours; for area under the viability curve (AUC), normalized: 12-point dose-response
Procedure, shortened: as §1

SNU601 = SNU601 cells, 72 hours; for area under the viability curve (AUC), normalized: 12-point dose-response
Procedure, shortened: as §1

MKN45 = details: 72 hours; for area under the viability curve (AUC), normalized: MKN45 cells, 12-point dose-response
Procedure, shortened: as §2

SNU1 = SNU1 cells, 72 hours; for area under the viability curve (AUC), normalized: 12-point dose-response
Procedure, shortened: as §1

MKN28 = MKN28 cells, 72 hours; for area under the viability curve (AUC), normalized: 12-point dose-response
Procedure, shortened: as §1

Hs746T = details: 72 hours; for area under the viability curve (AUC), normalized: Hs746T cells, 12-point dose-response
Procedure, shortened: as §1

SNU216 = details: 72 hours; for area under the viability curve (AUC), normalized: SNU216 cells, 12-point dose-response
Procedure, shortened: as §2

SNU1750 = details: 72 hours; for area under the viability curve (AUC), normalized: SNU1750 cells, 12-point dose-response
Procedure, shortened: as §1

SK4 = details: 72 hours; for area under the viability curve (AUC), normalized: SK4 cells, 12-point dose-response
Procedure, shortened: as §1

OCUM1 = OCUM1 cells, 72 hours; for area under the viability curve (AUC), normalized: 12-point dose-response
Procedure, shortened: as §1

SNU638 = SNU638 cells, 72 hours; for area under the viability curve (AUC), normalized: 12-point dose-response
Procedure, shortened: as §1

YCC2 = YCC2 cells, 72 hours; for area under the viability curve (AUC), normalized: 12-point dose-response
Procedure, shortened: as §1

NCI_N87 = NCI_N87 cells, 72 hours; for area under the viability curve (AUC), normalized: 12-point dose-response
Procedure, shortened: as §1

NCC20 = NCC20 cells, 72 hours; for area under the viability curve (AUC), normalized: 12-point dose-response
Procedure, shortened: as §1

NCC19 = NCC19 cells, 72 hours; for area under the viability curve (AUC), normalized: 12-point dose-response
Procedure, shortened: as §1

SNU1967 = SNU1967 cells, 72 hours; for area under the viability curve (AUC), normalized: 12-point dose-response
Procedure, shortened: as §1

KATO3 = KATO3 cells, 72 hours; for area under the viability curve (AUC), normalized: 12-point dose-response
Procedure, shortened: as §1

YCC3 = YCC3 cells, 72 hours; for area under the viability curve (AUC), normalized: 12-point dose-response
Procedure, shortened: as §1

NCC24 = NCC24 cells, 72 hours; for area under the viability curve (AUC), normalized: 12-point dose-response
Procedure, shortened: as §1

MKN74 = MKN74 cells, 72 hours; for area under the viability curve (AUC), normalized: 12-point dose-response
Procedure, shortened: as §2

SNU620 = SNU620 cells, 72 hours; for area under the viability curve (AUC), normalized: 12-point dose-response
Procedure, shortened: as §1

YCC11 = details: 72 hours; for area under the viability curve (AUC), normalized: YCC11 cells, 12-point dose-response
Procedure, shortened: as §1

FU97 = tested on: FU97; set-up: Average Area Under the Viability Curve (AUC), AUC norm value: scale not given here; details: FU97 cells, 72 hours; for area under the viability curve (AUC), normalized: 12-point dose-response
Procedure, shortened: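 Trapezoidal AUC of a 12-point, DMSO-normalized dose-response curve. Luminescent viability was measured after 72 h of exposure at 37° C to half-log serial dilutions (0.5% DMSO control), dosed 24 h after plating FU97 cells at 5×10^3 per well.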

CC(=O)O[C@H]1C(=O)[C@@]2(C)[C@H]([C@H](OC(=O)c3ccccc3)[C@]3(O)C[C@H](OC(=O)[C@H](O)[C@@H](NC(=O)c4ccccc4)c4ccccc4)C(C)=C1C3(C)C)[C@]1(OC(C)=O)CO[C@@H]1C[C@@H]2O [Paclitaxel (Taxol), Paclitaxel]
area under the viability curve (AUC), normalized (SNU668): −0.02282 | area under the viability curve (AUC), normalized (SNU484): −0.3604 | area under the viability curve (AUC), normalized (NCC59): 3.637 | area under the viability curve (AUC), normalized (MKN1): −1.258 | area under the viability curve (AUC), normalized (AGS): −1.831 | area under the viability curve (AUC), normalized (SNU719): 4.877 | area under the viability curve (AUC), normalized (SNU16): −0.5105 | area under the viability curve (AUC), normalized (SNU601): −1.106 | area under the viability curve (AUC), normalized (MKN45): 1.473 | area under the viability curve (AUC), normalized (SNU1): −1.778 | area under the viability curve (AUC), normalized (MKN28): −0.2731 | area under the viability curve (AUC), normalized (Hs746T): 0.7342 | area under the viability curve (AUC), normalized (SNU216): 2.148 | area under the viability curve (AUC), normalized (SNU1750): 0.811 | area under the viability curve (AUC), normalized (SK4): −0.872 | area under the viability curve (AUC), normalized (OCUM1): 2.909 | area under the viability curve (AUC), normalized (SNU638): −0.3898 | area under the viability curve (AUC), normalized (YCC2): 0.5673 | area under the viability curve (AUC), normalized (NCI_N87): −1.013 | area under the viability curve (AUC), normalized (NCC20): 0 | area under the viability curve (AUC), normalized (NCC19): 1.902 | area under the viability curve (AUC), normalized (SNU1967): 0.05016 | area under the viability curve (AUC), normalized (KATO3): 5.3572 | area under the viability curve (AUC), normalized (YCC3): 3.81 | area under the viability curve (AUC), normalized (NCC24): −1.616 | area under the viability curve (AUC), normalized (MKN74): 0.186 | area under the viability curve (AUC), normalized (SNU620): −1.998 | area under the viability curve (AUC), normalized (YCC11): −0.8302 | area under the viability curve (AUC), normalized (FU97): 0.989

OC1(c2ccc(Cl)c(C(F)(F)F)c2)CCN(CCCC(c2ccc(F)cc2)c2ccc(F)cc2)CC1 [Penfluridol]
Average Area Under the Viability Curve (AUC), AUC norm value (SNU668; SNU668 cells (SEM subtype)): 0.00275 | Average Area Under the Viability Curve (AUC), AUC norm value (SNU484; SNU484 cells (SEM subtype)): −0.3957 | Average Area Under the Viability Curve (AUC), AUC norm value (NCC59): 0.3439 | Average Area Under the Viability Curve (AUC), AUC norm value (MKN1): −0.01646 | Average Area Under the Viability Curve (AUC), AUC norm value (AGS; AGS cells (non-SEM subtype)): −0.6917 | Average Area Under the Viability Curve (AUC), AUC norm value (SNU719): 0.3303 | Average Area Under the Viability Curve (AUC), AUC norm value (SNU16): −1.2587 | Average Area Under the Viability Curve (AUC), AUC norm value (SNU601): 0.6748 | Average Area Under the Viability Curve (AUC), AUC norm value (MKN45; MKN45 cells (non-SEM subtype)): 0.9981 | Average Area Under the Viability Curve (AUC), AUC norm value (SNU1): 0.8479 | Average Area Under the Viability Curve (AUC), AUC norm value (MKN28): −0.6097 | Average Area Under the Viability Curve (AUC), AUC norm value (Hs746T; Hs746T cells (SEM subtype)): 0.2822 | Average Area Under the Viability Curve (AUC), AUC norm value (SNU216; SNU216 cells (non-SEM subtype)): −0.5069 | Average Area Under the Viability Curve (AUC), AUC norm value (SNU1750; SNU1750 cells (SEM subtype)): −0.03209 | Average Area Under the Viability Curve (AUC), AUC norm value (SK4; SK4 cells (SEM subtype)): −0.5075 | Average Area Under the Viability Curve (AUC), AUC norm value (OCUM1): 0.2066 | Average Area Under the Viability Curve (AUC), AUC norm value (SNU638): −1.32 | Average Area Under the Viability Curve (AUC), AUC norm value (YCC2): −0.07658 | Average Area Under the Viability Curve (AUC), AUC norm value (NCI_N87): 0.3682 | Average Area Under the Viability Curve (AUC), AUC norm value (NCC20): −0.8471 | Average Area Under the Viability Curve (AUC), AUC norm value (NCC19): 0.6239 | Average Area Under the Viability Curve (AUC), AUC norm value (SNU1967): −0.08879 | Average Area Under the Viability Curve (AUC), AUC norm value (KATO3): 0 | Average Area Under the Viability Curve (AUC), AUC norm value (YCC3): 0.4477 | Average Area Under the Viability Curve (AUC), AUC norm value (NCC24): 0.5023 | Average Area Under the Viability Curve (AUC), AUC norm value (MKN74): −1.133 | Average Area Under the Viability Curve (AUC), AUC norm value (SNU620): 0.04726 | Average Area Under the Viability Curve (AUC), AUC norm value (YCC11; YCC11 cells (SEM subtype)): −0.5164 | Average Area Under the Viability Curve (AUC), AUC norm value (FU97): 0.09295

CCCCc1nc2cc(/C=C/C(=O)NO)ccc2n1CCN(CC)CC [SB939 (Pracinostat), Pracinostat]
area under the viability curve (AUC), normalized (SNU668): 0.519 | area under the viability curve (AUC), normalized (SNU484): 0.208 | area under the viability curve (AUC), normalized (NCC59): 1.053 | area under the viability curve (AUC), normalized (MKN1): 0.232 | area under the viability curve (AUC), normalized (AGS): −1.799 | area under the viability curve (AUC), normalized (SNU719): 2.187 | area under the viability curve (AUC), normalized (SNU16): −1.067 | area under the viability curve (AUC), normalized (SNU601): 0.1827 | area under the viability curve (AUC), normalized (MKN45): 1.672 | area under the viability curve (AUC), normalized (SNU1): −1.4 | area under the viability curve (AUC), normalized (MKN28): −0.5866 | area under the viability curve (AUC), normalized (Hs746T): 0.7098 | area under the viability curve (AUC), normalized (SNU216): 0.6217 | area under the viability curve (AUC), normalized (SNU1750): −1.156 | area under the viability curve (AUC), normalized (SK4): −0.454 | area under the viability curve (AUC), normalized (OCUM1): 0.7195 | area under the viability curve (AUC), normalized (SNU638): −0.278 | area under the viability curve (AUC), normalized (YCC2): −0.02045 | area under the viability curve (AUC), normalized (NCI_N87): −0.6724 | area under the viability curve (AUC), normalized (NCC20): −0.08068 | area under the viability curve (AUC), normalized (NCC19): 0.6538 | area under the viability curve (AUC), normalized (SNU1967): −0.4581 | area under the viability curve (AUC), normalized (KATO3): 0.2173 | area under the viability curve (AUC), normalized (YCC3): 1.403 | area under the viability curve (AUC), normalized (NCC24): −1.137 | area under the viability curve (AUC), normalized (MKN74): 0.3806 | area under the viability curve (AUC), normalized (SNU620): −1.199 | area under the viability curve (AUC), normalized (YCC11): −0.768 | area under the viability curve (AUC), normalized (FU97): 0
